According to patent US5321016A, “Use of certain substituted α-amino acids in treating stress-related psychiatric disorders” (Sandoz Pharmaceuticals Corp., priority 1986, dated 1994):

Legend:
plasma corticosterone = assay: inhibition of plasma corticosterone rise induced by social stress in mice; assay type: in vivo, mouse (male, OF-1); conditions: 0.3 to 3 mg/kg p.o.
Protocol: This can be shown in the following test:
One day before the experiment a group of 5 male mice (40-50 g, OF-1, Sandoz,Basle) were placed in a transparent makrolon cage Typ 3, which is cut in halves by a grid. The next day each mouse was given an oral dose of 0.3-30 mg/kg of a compound of the invention, Two hours later an isolated male mouse was introduced for 15 minutes into the empty half of the cage and two trained observers recorded the behaviour of the mice in terms of acts such as dig, push-dig and rattle. Blood plasma samples were then taken from the tested mice group and assayed for corticosterone concentrations using a modified method of Paerson-Murphy B. E., J. Clin. Endocrinology 27 (1967) 973-990. The procedure was repeated with a control group of 5 mice which was given only a solvent.

[1] = system: electroshock-induced convulsions; assay: inhibition of electroshock-induced convulsions in the mouse; assay type: in vivo, mouse (OF-1); conditions: ip, 1 h, i.p., 60 minutes before shock, read-out: EDmin in the electroshock-induced convulsion test
Protocol: E. Swinyard, J. Am. Pharm. Assoc. Scient. Ed. 38, 201 (1949) and J. Pharmacol. Exptl. Therap. 106, 319 (1952)]. In this test groups of 3 mice (18-26 g, OF-1, Sandoz Basle) receive the test substance in a dosage of 3.2-100 mg/kg i.p. After 60 minutes a 50 mA, 200 ms long shock is applied with corneal electrodes smeared with electrolyte jelly. This supra-threshold shock produces tonic extensor convulsions of all extremities. Inhibition of the hindlimb extension is taken as a protective action. After investigation of several dose-levels an EDmin is estimated.

[2] = system: NMDA (N-Methyl-D-aspartic acid) receptors; assay: inhibition of NMDA-induced depolarizations of the isolated amphibian spinal cord (competitive antagonism); assay type: cell-based, toad or frog; conditions: at 5 μM
Text: The compounds of the invention further interact with excitatory amino acid systems, in particular they are competitive antagonists of NMDA (N-Methyl-D-aspartic acid) receptors, as indicated by an inhibitory effect on NMDA-induced depolarizations of the isolated amphibian spinal cord. This may be shown in the test performed in conventional manner (see for example D. R. Curtis et al., J. Physiol. (London) 150, 656-682 (1961) and R. H. Evans et al., Br. J. Pharmac. 67, 591-603 (1979) as follows:
A hemisected proximal part of the spinal cord of a toad or frog lies in a recording chamber being perfused by a Ringer solution (111 mM NaCl, 2 mM KCl, 2 mM CaCl2, 12 mM Glucose, Tris-buffer (pH 7.5, 10 mM). The dorsal root is pulled into the stimulating chambers, the ventral root into the recording chambers. A stimulator connected to the stimulating chambers is used. A DC high impedance preamplifier measures the DC potential between the ground lead sampling the main chamber and one of the recording chambers. The signal from the pre-amplifier is monitored on a CRO to display stimulated synaptic activity (dorsal root--ventral root potential, DR--VRP) or to a chart recorder to display slow changes in potential. […]
Antagonists are tested in two stages. […] In such cases pA2 values are calculated according to the formula […]

NC(Cc1cc(CP(=O)(O)O)cc(-c2ccccc2)c1)C(=O)O (single isomer, unassigned) [Example 16, (+)-α-Amino-3-(5-phosphonomethyl-[1.1'-biphenyl]-3-yl) propanoic acid] was tested, and the “inhibition of the rise of plasma-corticosterone (social stress)” value (plasma corticosterone) was “inhibits significantly”.

With NC(Cc1cc(CP(=O)(O)O)cc(-c2ccc(Cl)cc2)c1)C(=O)O (racemic) [Example 1, (±)-α-Amino-3-(4'-chloro-5-phosphonomethyl-[1.1'-biphenyl]-3-yl)propanoic acid] the minimal effective dose [1] was less than 50 mg/kg and the “pA2 as NMDA receptor inhibitor” value [2] was 7.3.
